Reference: ChEMBL document CHEMBL6103565, “Current strategies in design and synthesis of antifungals hybrid and chimeric diazine derivatives” (Bioorg Med Chem, 2025)
In brackets after ≈: the same amount, converted by molar mass.

Columns and labels:
Type in all cases: functional
Aspergillus niger [1] = experiment: Antifungal activity against Aspergillus niger ATCC 16404 assessed as inhibition of mycelial growth relative to control
Candida albicans [2] = experiment: Antifungal activity against Candida albicans ATCC 10231 assessed as inhibition of mycelial growth relative to control
Candida albicans [3] = experiment: Antifungal activity against Candida albicans assessed as diameter of zone inhibition
Aspergillus niger [4] = experiment: Antifungal activity against Aspergillus niger assessed as diameter of zone inhibition
Candida albicans [5] = experiment: Antifungal activity against Candida albicans ATCC 90028 assessed as growth inhibition incubated for 36 hrs by resazurin dye based assay
Candida albicans [6] = experiment: Antifungal activity against Candida albicans NRRL-Y477 assessed as zone of inhibition by disc diffusion method
Aspergillus terreus = experiment: Antifungal activity against Aspergillus terreus assessed as zone of inhibition by disc diffusion method
Candida albicans [7] = experiment: Antifungal activity against azole-resistant Candida albicans ATCC 10231 assessed as reduction in fungal growth by XTT assay
Candida albicans [8] = experiment: Antifungal activity against azole-resistant Candida albicans ATCC 18804 assessed as reduction in fungal growth by XTT assay
Aspergillus niger [9] = experiment: Antifungal activity against Aspergillus niger MTCC 282 assessed as reduction in microbial growth after 24 hrs by broth micro-dilution method
[10] = tested on: Talaromyces purpureogenus; experiment: Antifungal activity against Talaromyces purpureogenus assessed as zone of inhibition by disc diffusion method
Aspergillus niger [11] = experiment: Antifungal activity against Aspergillus niger assessed as zone of inhibition by disc diffusion method
Candida albicans [12] = experiment: Antifungal activity against Candida albicans ATCC 10231 assessed as zone of inhibition incubated for 24 hrs by disc diffusion method
Candida albicans [13] = experiment: Antifungal activity against Candida albicans SC5314 assessed as reduction in fungal growth incubated for 72 hrs by broth microdilution method
[14] = tested on: Syncephalastrum racemosum; experiment: Antifungal activity against Syncephalastrum racemosum
Geotrichum candidum = experiment: Antifungal activity against Geotrichum candidum
Candida albicans [15] = experiment: Antifungal activity against Candida albicans
Candida albicans [16] = experiment: Antifungal activity against azole-resistant Candida albicans ATCC 10231 assessed as fungal growth inhibition incubated for 24 hrs by CLSI protocol based broth microdilution method
Candida albicans [17] = experiment: Antifungal activity against azole-resistant Candida albicans ATCC 18804 assessed as fungal growth inhibition incubated for 24 hrs by CLSI protocol based broth microdilution method
Candida albicans [18] = experiment: Antifungal activity against Candida albicans assessed as zone of inhibition
Aspergillus niger [19] = experiment: Antifungal activity against Aspergillus niger assessed as zone of inhibition
Aspergillus fumigatus = experiment: Antifungal activity against Aspergillus fumigatus assessed as reduction in fungal growth
Candida albicans [20] = experiment: Antifungal activity against Candida albicans ATCC 90028 assessed as reduction in microbial growth
Candida tropicalis = experiment: Antifungal activity against Candida tropicalis ATCC 750 assessed as reduction in microbial growth
Nakaseomyces glabratus = experiment: Antifungal activity against Candida glabrata ATCC 90030 assessed as reduction in microbial growth

CCCCCCCC(=O)O[C@@H]1[C@H](OC(=O)CCCCCCC)[C@@H](COC(c2ccccc2)(c2ccccc2)c2ccccc2)O[C@H]1n1ccc(=O)[nH]c1=O
inhibition (INH) (Aspergillus niger [1]): 99%
inhibition (INH) (Candida albicans [2]): 70%

C/C=C/N1CCN(c2nc3ccccc3nc2-c2cccc(C)c2)CC1
inhibition zone (IZ) (Candida albicans [3]): 14 mm
inhibition zone (IZ) (Aspergillus niger [4]): 15 mm

O=C(Nc1ccc(F)cc1)N1CCn2c(nnc2C(F)(F)F)C1
MIC (Candida albicans [5]): 6.25 mg/L (≈ 19 µM)

CCOC(=O)c1c(C)nc2sc3c(ncn4nc(C)nc34)c2c1-c1cccs1
inhibition zone (IZ) (Candida albicans [6]): 25 mm
inhibition zone (IZ) (Aspergillus terreus): 25 mm

O=C1N=C(n2[nH]c(=O)ccc2=O)S/C1=N\Nc1ccc(Cl)cc1Cl
MIC (Candida albicans [7]): 2.1 mg/L (≈ 5.47 µM)
MIC (Candida albicans [8]): 0.6 mg/L (≈ 1.56 µM)

Clc1cnc(C2=Nc3ccccc3SC(c3cccs3)C2)cn1 (stereo not drawn)
MIC (Aspergillus niger [9]): 44 µM

C[C@@H](c1ncncc1F)[C@](O)(Cn1cncn1)c1ccc(F)cc1F [VORICONAZOLE]
inhibition zone (IZ) [10]: 17 mm
inhibition zone (IZ) (Aspergillus terreus): 20 mm
inhibition zone (IZ) (Aspergillus niger [11]): 20 mm

CCOc1ccccc1/N=N/c1c(N)nc2c(/N=N/c3ccccc3OCC)cnn2c1N
inhibition zone (IZ) (Candida albicans [12]): 21 mm

O=C(NNc1nc2ccccc2nc1/C=C/c1ccccc1O)Nc1cccc(Cl)c1
MIC (Candida albicans [13]): 0.125 µM (≈ 0.054 µg/mL)

C=CCNN1CCN(c2nc3ccccc3nc2-c2cccc(C)c2)CC1
inhibition zone (IZ) (Candida albicans [3]): 13 mm
inhibition zone (IZ) (Aspergillus niger [4]): 14 mm

Cc1nn(-c2ccccc2)c2nc3sc(C(=O)OCC(=O)c4ccccc4)c(N)c3nc12
MIC [14]: 5 mg/L (≈ 11.3 µM)
MIC (Geotrichum candidum): 4 mg/L (≈ 9.02 µM)
MIC (Candida albicans [15]): 5 mg/L (≈ 11.3 µM)

O=c1ccc(=O)n(-c2nc(-c3cccs3)cs2)[nH]1
MIC (Candida albicans [16]): 3.9 mg/L (≈ 14.1 µM)
MIC (Candida albicans [17]): 1.9 mg/L (≈ 6.85 µM)

Cc1cccc(-c2nc3ccccc3nc2N2CCN(C)CC2)c1
inhibition zone (IZ) (Candida albicans [3]): 14 mm
inhibition zone (IZ) (Aspergillus niger [4]): 16 mm

O=C1NC(=O)C(=C2NN=C(Nc3nnc(-c4cc([N+](=O)[O-])cc([N+](=O)[O-])c4)s3)S2)C(=O)N1
inhibition zone (IZ) (Candida albicans [18]): 25 mm
inhibition zone (IZ) (Aspergillus niger [19]): 23 mm

O=C(Nc1ccc(F)c(F)c1)N1CCn2c(nnc2C(F)(F)F)C1
MIC (Candida albicans [5]): 6.25 mg/L (≈ 18 µM)

O=C1CS/C(=N\c2nn(-c3ccccc3)nc2C(=O)Nc2cnccn2)N1
MIC (Aspergillus fumigatus): < 209 mg/L

O=c1ccc(=O)n(-c2nc(-c3cc4ccccc4oc3=O)cs2)[nH]1
MIC (Candida albicans [16]): 5.6 mg/L (≈ 16.5 µM)

COc1ccc(/N=N/c2sc(-n3[nH]c(=O)ccc3=O)nc2C)cc1
MIC (Candida albicans [8]): 0.2 mg/L (≈ 0.582 µM)

Cc1nc2c(sc3nc4c(nc32)c(C)nn4-c2ccccc2)c(=O)o1
MIC [14]: 3 mg/L (≈ 8.59 µM)
MIC (Geotrichum candidum): 4 mg/L (≈ 11.4 µM)
MIC (Candida albicans [15]): 3 mg/L (≈ 8.59 µM)

C[C@]12CC[C@H](O)CC1=CC[C@@H]1[C@@H]2CC[C@]2(C)C3=C(C[C@@H]12)C(c1ccccc1)N1C=CSC1=N3 (stereo partly drawn)
MIC (Candida albicans [20]): 750 mg/L
MIC (Candida tropicalis): > 1000 mg/L
MIC (Nakaseomyces glabratus): > 1000 mg/L

O=c1ccc(=O)n(-c2nc(-c3ccc([N+](=O)[O-])cc3)cs2)[nH]1
MIC (Candida albicans [17]): 3.9 mg/L (≈ 12.3 µM)

CCOC(=O)c1sc2nc3c(nc2c1N)c(C)nn3-c1ccccc1
MIC [14]: 5 mg/L (≈ 14.1 µM)
MIC (Geotrichum candidum): 5 mg/L (≈ 14.1 µM)
MIC (Candida albicans [15]): 5 mg/L (≈ 14.1 µM)

CCOC(=O)c1c(C)nc2sc3c(-n4nc(C)cc4C)ncnc3c2c1-c1cccs1
inhibition zone (IZ) [10]: 25 mm
inhibition zone (IZ) (Aspergillus niger [11]): 24 mm

O=C1N/C(=N/c2nn(-c3ccccc3)nc2C(=O)Nc2cnccn2)S/C1=C\c1ccccc1
MIC (Aspergillus fumigatus): < 214 mg/L
